Laboratory results: patent US10385085B2, “Crystal forms of sialic acid or salt or solvate thereof” (Ultragenyx Pharmaceutical Inc., priority 2015, dated 2019)
Several values for one entry are separate records, joined by “and”; a condition that tells them apart may be missing. Identical values can stand only once. Blank lines part the entries; values can stand above or below the compound they belong to.

Assays:
Type in all cases: physicochemical
[1] = 7 day stress stability, chemical stability by HPLC; conditions: for Chemical stability: 1 week stress test, conditions studied; for Sialic acid Area % (HPLC): two injections
Procedure: The chemical purity was measured on an Agilent HP1100 HPLC system fitted with an Agilent variable wavelength UV detector. Samples were prepared by dissolving in diluent at a concentration of 1 mg/mL before being analysed under the following HPLC conditions:
(§1) The selected Forms (5, 3 and 2) were fully characterized by PLM, XRPD, ^1H NMR and IR spectroscopy, DSC, TG/DTA, GVS (with post-GVS XRPD), Karl Fischer titration for water content and HPLC analysis for purity. All of these forms with the addition of Form 1 were also placed under a stress-stability test, at three different conditions for one week (ambient conditions, 40° C. and 75% relative humidity, 80° C.). In addition to this, an approximate solubility test was conducted on the different solid forms using a solvent addition method.
(§2) All four Forms (1, 2, 3 and 5) were placed under 7 day stress stability testing. This was carried out by placing the four forms under three different conditions for one week. Their physical stability was then analyzed by comparing the diffractograms and the chemical stability was checked by HPLC.

[2] = 7 day stress stability, physical form by XRPD
Procedure: XRPD analysis was carried out on a Panalytical X′pert Pro, scanning the samples between 3 and 35° […]. The material was gently ground and loaded onto a multi well plate with Kapton or mylar polymer film to support the sample. The multi well plate was then loaded into a Panalytical diffractometer running in transmission mode and analysed, using the following experimental conditions.
as §1, §2

[3] = Gravimetric Vapour Sorption (GVS) with post-GVS XRPD; conditions: for Polymorphic form after GVS (XRPD): material reclaimed after GVS run
Procedure: Approximately 10-20 mg of sample was placed into a mesh vapour sorption balance pan and loaded into an IGASorp Moisture Sorption Analyser balance by Hiden Analytical. The sample was subjected to a ramping profile from 40-90% relative humidity (RH) at 10% increments, maintaining the sample at each step until a stable weight had been achieved (98% step completion). After completion of the sorption cycle, the sample was dried using the same procedure to 0% RH, and finally taken back to the starting point of 40% RH. The weight change during the sorption/desorption cycles were plotted, allowing for the hygroscopic nature of the sample to be determined.

[4] = HPLC-UV chemical purity; conditions: summary Table 13
Procedure: The chemical purity was measured on an Agilent HP1100 HPLC system fitted with an Agilent variable wavelength UV detector. Samples were prepared by dissolving in diluent at a concentration of 1 mg/mL before being analysed under the following HPLC conditions: […]

[5] = Differential Scanning Calorimetry (DSC)
Procedure: Approximately, 5 mg of material was weighed into an aluminium DSC pan and sealed non-hermetically with a pierced aluminium lid. The sample pan was then loaded into a Seiko DSC6200 (equipped with a cooler) cooled and held at 25° C. Once a stable heat-flow response was obtained, the sample and reference were heated to 210° C. at a scan rate of 10° C./min and the resulting heat flow response monitored. Nitrogen was used as the purge gas, at a flow rate of 50 cm^3/min.

[6] = Approximate aqueous solubility of the solid forms (solvent addition method)
Procedure: as §1
Approximately 50 mg of each form (1, 2, 3 and 5) was weighed into a 2 ml vial. 20 μl aliquots of deionized water was added to each vial until complete dissolution of the solid was observed. The volume was noted down and the approximate water solubility calculated.

[7] = PLM (morphology) of the solid forms
[8] = Thermogravimetric/Differential Thermal Analysis (TG/DTA)
Procedure: Approximately, 10 mg of material was weighed into an open aluminium pan and loaded into a simultaneous thermogravimetric/differential thermal analyser (TG/DTA) and held at room temperature. The sample was then heated at a rate of 10° C./min from 25° C. to 300° C. during which time the change in sample weight was recorded along with any differential thermal events (DTA). Nitrogen was used as the purge gas, at a flow rate of 300 cm^3/min.

[9] = Approximate solvent solubility screen (aliquot addition); conditions: for solubility: 40 °C, thermodynamic from solid
Procedure: Approximately 10 mg of sialic acid was used to check the solubility in 31 different solvents or solvent mixtures.
50 μl aliquots of solvent were added in attempts to dissolve the sialic acid. The volume range used varied between 50 μl and 2 ml. Dissolution was aided by heating to 40° C. and shaking the vial between aliquots.
The mixture of solvents Ethanol:Acetone:Ethyl acetate (85:12:3 wt %) will be referred to as “Ethynol” hereafter.

[10] = 1 week under ambient conditions

- Chemical stability [1]: good
- Physical form (XRPD) after stress ([2]; 1 week at 40° C./75% RH): converts to Form 1
- Physical form (XRPD) after stress ([2]; 1 week at 80° C.): stable
- Physical form (XRPD) after stress [2, 10]: mixture of Forms 1 and 2
- Hygroscopicity (GVS) [3]: slightly hygroscopic
- GVS weight loss on sorption ([3]; RH>50%): ca. 1.5%
- Polymorphic form after GVS (XRPD) [3]: transformed to Form 1
Compound: CC(=O)N[C@H]1[C@H]([C@H](O)[C@H](O)CO)OC(O)(C(=O)O)C[C@@H]1O (stereo partly drawn) [An embodiment of Form 2, N-acetylneuraminic acid]

- Chemical stability [1]: moderate chemical stability
- Sialic acid Area % (HPLC) ([1]; after 1 week under 40° C., 75% RH): 98.011% and 98.031%
- Sialic acid Area % (HPLC) ([1]; after 1 week under 80° C.): 99.526% and 99.523%
- Sialic acid Area % (HPLC) ([1]; after 1 week under ambient conditions): 99.684% and 99.715%
- HPLC purity of recovered samples ([1]; after 1 week, all three conditions (ambient; 40° C./75% RH; 80° C.)): higher than 98%
- Physical form (XRPD) after stress ([2]; 1 week at 80° C.): to Form 2
- Stability as a physical form (XRPD) ([2]; 1 week stress test, overall): not stable
- Physical form (XRPD) after stress [2, 10]: converts to Form 2
- Stability - XRPD post Stability ([2]; at 80° C.): Form 2 at 80 °C
- Stability - XRPD post Stability ([2]; at RT): Form 2 at RT
- HPLC (purity) [4]: 99.8%
- DSC (thermal events) Endotherm [5]: 107° ° C. and 181.0° ° C.
- Approximate solubility ([6]; aqueous): 188200 µg/mL
- Aqueous Solubility, Solubility in g/L ([6]; deionized water, approximate, solvent addition): 188.2 g/L
- DVS (hygroscopicity) [3]: Goes to form 1
- XRPD post DVS [3]: change
- Polymorphic form after GVS (XRPD) [3]: converts to Form 1
- GVS weight loss (desolvation) ([3]; on increase of humidity): 16%
- DVS, RH at which the form goes to form 1 ([3]; relative humidity): RH >50%
- PLM (morphology), particle size [7]: <30 μm
- PLM (morphology) ([7]; particle shape): Small needles
- TGA (weight loss) [8]: 15.3%
- TGA Decomposition temperature [8]: 176.2° ° C.
- TGA temperature of the weight loss [8]: (80° C.)
Compound: CC(=O)N[C@H]1[C@H]([C@H](O)[C@H](O)CO)OC(O)(C(=O)O)C[C@@H]1O (stereo partly drawn) [Form 3, N-acetylneuraminic acid]

- solubility ([9]; aqueous with cosolvent or surfactant or cyclodextrin, solvent: Water:Acetic Acid (80:20) v/v): > 213000 µg/mL
- solubility ([9]; organic solvent or mixture, solvent: 1,4-Dioxane): < 4900 µg/mL
- solubility ([9]; organic solvent or mixture, solvent: 1-Butanol): < 6100 µg/mL
- solubility ([9]; organic solvent or mixture, solvent: 2-Ethoxy ethanol): < 6800 µg/mL
- solubility ([9]; organic solvent or mixture, solvent: 2-Methyl THF): < 5200 µg/mL
- solubility ([9]; organic solvent or mixture, solvent: 2-propanol): < 5000 µg/mL
- solubility ([9]; organic solvent or mixture, solvent: Acetic acid): < 5400 µg/mL
- solubility ([9]; organic solvent or mixture, solvent: Acetone): < 5600 µg/mL
- solubility ([9]; organic solvent or mixture, solvent: Acetone:Ethanol (50:50) v/v): < 5100 µg/mL
- solubility ([9]; organic solvent or mixture, solvent: Acetone:Ethyl Acetate (50:50) v/v): < 4800 µg/mL
- solubility ([9]; organic solvent or mixture, solvent: Acetone:Water (90:10) v/v): < 5100 µg/mL
- solubility ([9]; organic solvent or mixture, solvent: Acetonitrile): < 4800 µg/mL
- solubility ([9]; organic solvent or mixture, solvent: Dichloromethane): < 5100 µg/mL
- solubility ([9]; organic solvent or mixture, solvent: Diisopropyl ether): < 4800 µg/mL
- solubility ([9]; organic solvent or mixture, solvent: Dimethylacetamide): > 72600 µg/mL
- solubility ([9]; organic solvent or mixture, solvent: Dimethylsulfoxide): > 301000 µg/mL
- solubility ([9]; organic solvent or mixture, solvent: Ethanol): < 5100 µg/mL
- solubility ([9]; organic solvent or mixture, solvent: Ethanol:Water (90:10) v/v): < 5200 µg/mL
- solubility ([9]; organic solvent or mixture, solvent: Ethyl acetate): < 5800 µg/mL
- solubility ([9]; organic solvent or mixture, solvent: Ethynol (Ethanol:Acetone:Ethyl acetate 85:12:3 wt %)): < 5300 µg/mL
- solubility ([9]; organic solvent or mixture, solvent: Isopropyl acetate): < 6500 µg/mL
- solubility ([9]; organic solvent or mixture, solvent: Methanol): < 5200 µg/mL
- solubility ([9]; organic solvent or mixture, solvent: Methylethyl ketone): < 5700 µg/mL
- solubility ([9]; organic solvent or mixture, solvent: Methylisobutyl ketone): < 6300 µg/mL
- solubility ([9]; organic solvent or mixture, solvent: N-Methyl-2-pyrrolidone): > 72100 µg/mL
- solubility ([9]; organic solvent or mixture, solvent: Nitromethane): < 6000 µg/mL
- solubility ([9]; organic solvent or mixture, solvent: Tetrahydrofuran): < 5300 µg/mL
- solubility ([9]; organic solvent or mixture, solvent: Toluene): < 5900 µg/mL
- solubility ([9]; organic solvent or mixture, solvent: n-Heptane): < 5300 µg/mL
- solubility ([9]; organic solvent or mixture, solvent: tert-Butylmethyl ether): < 4600 µg/mL
- solubility ([9]; solvent: Water): > 212000 µg/mL
- Visual Observation ([9]; solvent: 1,4-Dioxane): Partial Solubility
- Visual Observation ([9]; solvent: 1-Butanol): Partial Solubility
- Visual Observation ([9]; solvent: 2-Ethoxy ethanol): Partial Solubility
- Visual Observation ([9]; solvent: 2-Methyl THF): Partial Solubility
- Visual Observation ([9]; solvent: 2-propanol): Partial Solubility
- Visual Observation ([9]; solvent: Acetic acid): Partial Solubility
- Visual Observation ([9]; solvent: Acetone): Low Solubility
- Visual Observation ([9]; solvent: Acetone:Ethanol (50:50) v/v): Partial Solubility
- Visual Observation ([9]; solvent: Acetone:Ethyl Acetate (50:50) v/v): Low Solubility
- Visual Observation ([9]; solvent: Acetone:Water (90:10) v/v): Partial Solubility
- Visual Observation ([9]; solvent: Acetonitrile): Low Solubility
- Visual Observation ([9]; solvent: Dichloromethane): Partial Solubility
- Visual Observation ([9]; solvent: Diisopropyl ether): Low Solubility
- Visual Observation ([9]; solvent: Dimethylacetamide): Soluble
- Visual Observation ([9]; solvent: Dimethylsulfoxide): Soluble
- Visual Observation ([9]; solvent: Ethanol): Partial Solubility
- Visual Observation ([9]; solvent: Ethanol:Water (90:10) v/v): Partial Solubility
- Visual Observation ([9]; solvent: Ethyl acetate): Extremely low
- Visual Observation ([9]; solvent: Ethynol (Ethanol:Acetone:Ethyl acetate 85:12:3 wt %)): Partial Solubility
- Visual Observation ([9]; solvent: Isopropyl acetate): Extremely low
- Visual Observation ([9]; solvent: Methanol): Partial Solubility
- Visual Observation ([9]; solvent: Methylethyl ketone): Partial Solubility
- Visual Observation ([9]; solvent: Methylisobutyl ketone): Low Solubility
- Visual Observation ([9]; solvent: N-Methyl-2-pyrrolidone): Soluble
- Visual Observation ([9]; solvent: Nitromethane): Low Solubility
- Visual Observation ([9]; solvent: Tetrahydrofuran): Low Solubility
- Visual Observation ([9]; solvent: Toluene): Partial Solubility
- Visual Observation ([9]; solvent: Water): Soluble
- Visual Observation ([9]; solvent: Water:Acetic Acid (80:20) v/v): Soluble
- Visual Observation ([9]; solvent: n-Heptane): Extremely low
- Visual Observation ([9]; solvent: tert-Butylmethyl ether): Extremely low
Compound: CC(=O)N[C@H]1[C@H]([C@H](O)[C@H](O)CO)OC(O)(C(=O)O)C[C@@H]1O (stereo partly drawn) [Sialic acid, N-acetylneuraminic acid]
